# Results from article PMC8776094, “Reactive Oxygen Species Production Is Responsible for Antineoplastic Activity of Osmium, Ruthenium, Iridium and Rhodium Half-Sandwich Type Complexes with Bidentate Glycosyl Heterocyclic Ligands in Various Cancer Cell Models” (International Journal of Molecular Sciences, 2022).
# “And” between values parts separate entries of the source, which are not always exact repeats. Equal values may be shown once. Read-outs that look alike come from different tables or passages of the source.
# Legend:
# [1] = system: ID8 ovarian cancer cell line; assay: MTT reduction assay, 4 h, rapid toxicity, ID8; type: cell-based; conditions: MTT assay, 4 h treatment; ND = not detected or cannot be calculated
# Protocol: (§1) The compounds were tested between 0.001694 and 33.3333 µM, using a 4-hour-long MTT test to assess rapid toxicity and a 48-hour-long SRB assay to assess the long-term effects of the inhibition of proliferation (cytostasis). The MTT assay assesses the activity of mitochondrial complex I and detects rapid, direct toxicity, as well as indicating apoptosis and necrosis. The SRB assay measures the total protein content that is proportional to cell numbers; therefore, the assay can detect changes in cell numbers and can thus be used as a readout for cell proliferation. The SRB assay was performed after 48 h of treatment (with the exception of L428 cells, which were tested for 96 h due to their slower proliferation rate). In this setting, the SRB assay informs us of long-term changes to cell proliferation. We assessed the maximal inhibition within that concentration range, and descriptive statistics were performed. We performed a one-way ANOVA, followed by the Kruskal–Wallis test, regardless of the normal or non-normal distribution of the data. Due to the large number of significance values, the results of the significance calculations are provided in an Excel spreadsheet at https://figshare.com/s/28d14597d5041f08eb08 (accessed on 6 January 2022), among other primary data of the study. Where possible, nonlinear regression was performed on the curves to determine the IC50 values ((inhibitor) vs. response—variable slope (four parameters) method with Graphpad v8.0.1). […] In Table 5, we added the IC50 values that we determined for a set of 4 active ruthenium half-sandwich complexes we identified previously, to be used in subsequent structure-activity relationship (SAR) analyses.
# (§2) ID8 cells were cultured in a high-glucose DMEM (4.5 g/L glucose) medium, supplemented with 4% fetal calf serum, 2 mM glutamine, 1% penicillin-streptomycin, and 1% ITS supplement (I3146).
# (§3) The MTT reduction assay measures the activity of mitochondrial complex I and can be used to detect apoptosis and necrosis. The assay was performed similarly to the method used in [72]. Briefly, cells were plated in 96-well plates the day before the assay. Cells were treated with the compounds for 4 h, then MTT was added at 0.5 mg/mL final concentration and the cells were incubated at 37 °C in a cell incubator. The culture media were removed and the reduced MTT dye was dissolved in dimethyl-sulfoxide (DMSO) and plates were measured in a plate photometer (Thermo Scientific Multiscan GO spectrophotometer, Waltham, MA, USA) at 540 nm. On each plate, wells were designed to contain untreated/vehicle-treated cells. In the calculations, the readings for these wells were considered as 1 and all readings were expressed relative to these values.
# [2] = system: A2780 ovarian cancer cells; assay: SRB assay, 48 h, cytostasis, A2780; type: cell-based; conditions: for cytostatic activity on A2780 cells in SRB assay (in words): 48 h treatment; for A2780 Max. Inh. (%): ND = not detected
# Protocol: as §1
# (§4) A2780 cells were cultured in RMPI 1640 medium, supplemented with 10% fetal calf serum, 2 mM glutamine, and 1% penicillin-streptomycin.
# (§5) The assay was performed similarly to the method used in [73]. Cells were seeded in 96-well plates the day before the assay. Cells were treated with the compounds for 48 h, with the exception of L428, where 96 h of treatment was applied. Cells were fixed with 10% trichloroacetic acid (TCA). Fixed cells were washed in distilled water 3 times, followed by staining with SRB (0.4 m/V% dissolved in 1% acetic acid) for 10 min. The stained cells were washed in 1% acetic acid 5 times; the acetic acid was removed, and the cells were left to dry. Protein-bound SRB was released by adding 100 µL 10 mM Tris base. Plates were measured in a plate photometer (Thermo Scientific Multiscan GO spectrophotometer, Waltham, MA, USA) at 540 nm. On each plate, wells were designed to contain untreated cells. In calculations, the readings for these wells were considered as 1 and all readings were expressed relative to these values.
# (§6) Statistical analysis was performed using the 8.0.1 version of Graphpad Prism. Values were tested for normal distribution, using the d’Agostino and Pearson normality test. When necessary, values were log-normalized or were normalized using the Box-Cox normalization method or using a two-step transformation, as indicated in the figure captions. Nonlinear regression was performed using the built-in “[Inhibitor] vs. Response—Variable slope (four parameters), least-square fit” utility of Graphpad, yielding the IC50 and Hill slope values.
# [3] = system: Capan2, a pancreatic adenocarcinoma cell line; assay: SRB assay, 48 h, cytostasis, Capan2; type: cell-based; conditions: SRB assay, ND = not detected
# Description: We turned next to assessing whether the cytostatic activity of Os-3, Os-4, Os-5, Os-6 and Ir-6 complexes is specific for ovarian cancer cell lines or if they may be active on other cell lines. To that end, we tested the complexes on another carcinoma cell line (Capan2, a pancreatic adenocarcinoma cell line), on a sarcoma cell line (Saos, an osteosarcoma cell line) and on a lymphoma cell line (L428, a Hodgkin’s lymphoma cell line).
# Capan2 cells were maintained in MEM, 10% fetal bovine serum, 1% penicillin/streptomycin, and 2 mM glutamine.
# as §5, §6
# Here, 1.5 × 10^3 Capan2, 3 × 10^3 Saos cells and 10^4 L428 cells were plated onto 96-well plates. Capan2 and Saos cells were treated with the compounds in the concentrations indicated for 48 h for an SRB assay. L428 cells were treated with the compounds in the concentrations indicated for 96 h, then cells were counted using conventional microscopy and a Burker chamber. Data are represented as average ± SD, from three biological replicates; individual assays were performed in duplicate. Values were normalized for vehicle-treated cells; the absorbance for vehicle-treated cells is equal to 1. A one-way ANOVA, followed by a Kruskal–Wallis test, was performed individually for each compound. The results of the statistical analysis are presented in an Excel spreadsheet at https://figshare.com/s/28d14597d5041f08eb08 (accessed on 6 January 2022). Nonlinear regression was performed on the data.
# [4] = Determination of the distribution coefficients (logD), n-octanol/PBS; type: physicochemical; conditions: n-octanol / PBS pH = 7.40, rt
# Protocol: Before starting the experiments, n-octanol was saturated with an aqueous PBS solution (pH = 7.40) and vice versa. A solution of the appropriate complex (approximately 0.2–0.3 mg) in a mixture of 2.50 mL pre-saturated n-octanol and 2.50 mL pre-saturated PBS buffer was made, and the resulting mixture was then vigorously stirred for 3 days at rt. Based on our previous NMR stability experiments, this time is long enough to reach equilibrium among the various ionic complex species. Due to the lipophilic/hydrophilic features of the complexes, those with benzoyl protection could primarily be found in the n-octanol, while the complexes with O-peracetylated and O-deprotected ligands were in the aqueous PBS phase. The corresponding separated solution was centrifuged (ScanSpeed 406G instrument, 4000 RPM for 5 min) and the absorption of the ”stock solution” was determined (VWR UV-1600PC Spectrophotometer, 270–420 nm). Then, 2.00 mL of the stock solution was vigorously stirred with 16.00 mL of pre-saturated n-octanol or PBS solution. After one day had passed, the phases were separated, centrifuged, and the absorption of the solution was measured again. From the absorption difference of the stock solutions, the distribution coefficient (D) was determined using previously described formulae [71].
# [5] = system: ID8 ovarian cancer cell line; assay: SRB assay, 48 h, cytostasis, ID8; type: cell-based; conditions: for cytostatic activity on ID8 cells, SRB assay (in words): 48 h treatment; for ID8 Max. Inh. (%): SRB assay, 48 h, ND = not detected
# Protocol: as §1, §2, §5, §6
# [6] = system: A2780 ovarian cancer cells; assay: MTT reduction assay, 4 h, rapid toxicity, A2780; type: cell-based; conditions: 4 h treatment
# Protocol: as §1, §4, §3
# [7] = system: A2780 ovarian cancer cells; set-up: method as in PMID 34638791; conditions: SRB assay, 48 h; data previously published; cited from earlier work
# [8] = system: ID8 ovarian cancer cell line; set-up: method as in PMID 34638791; conditions: SRB assay, 48 h; data previously published; cited from earlier work
# [9] = system: Capan2, a pancreatic adenocarcinoma cell line; set-up: method as in PMID 34638791; conditions: SRB assay, 48 h; data previously published; cited from earlier work
# [10] = set-up: method as in PMID 34638791; conditions: data previously published; cited from earlier work
Structure (SMILES),Maximum Inhibition (%) ID8 [1],cytostatic activity on A2780 cells in SRB assay (in words) [2],"A2780 Max. Inh. (%) ([2]; SRB assay, 48 h)",LogD [4],toxicity on A2780 cells in short-term MTT assay (in words) [6],A2780 Max. Inh. (%) [7],IC50 [7],IC50 [8],ID8 Max. Inh. (%) [8],Capan2 Max. Inh. (%) [9],IC50 [9],LogD [10],further results
Cc1c(C)c(C)[c-](C)c1C.F[P-](F)(F)(F)(F)F.O=C(OCC1OC(c2nnc(-c3ccccn3)o2)C(OC(=O)c2ccccc2)C(OC(=O)c2ccccc2)C1OC(=O)c1ccccc1)c1ccccc1.[Cl][Ir+2] (mixture of isomers) [Ir-3],26.11%,mild,69.25%,1.46,–,–,–,–,–,–,–,–,Capan2 Max. Inh. (%) [3]: 27.62%
Cc1c(C)c(C)[c-](C)c1C.F[P-](F)(F)(F)(F)F.O=C(OC1COC(c2nnc(-c3ccccn3)o2)C(OC(=O)c2ccccc2)C1OC(=O)c1ccccc1)c1ccccc1.[Cl][Rh+2] (mixture of isomers) [Rh-5],21.87%,–,51.28%,1.8,–,–,–,–,–,–,–,–,"cytostatic activity on ID8 cells, SRB assay (in words) [5]: mild cytostatic activity; ID8 Max. Inh. (%) [5]: 75.25%"
Cc1c(C)c(C)[c-](C)c1C.F[P-](F)(F)(F)(F)F.O=C(OCC1OC(n2cc(-c3ccccn3)nn2)C(OC(=O)c2ccccc2)C(OC(=O)c2ccccc2)C1OC(=O)c1ccccc1)c1ccccc1.[Cl][Rh+2] (mixture of isomers) [Rh-6],28.28%,–,59%,1.85,–,–,–,–,–,–,–,–,"IC50 ([2]; SRB assay, 48 h): 25.3 µM; cytostatic activity on ID8 cells, SRB assay (in words) [5]: mild cytostatic activity; ID8 Max. Inh. (%) [5]: 43.70%"
Cc1ccc(C(C)C)cc1.F[P-](F)(F)(F)(F)F.O=C(OCC1OC(c2noc(-c3ccccn3)n2)C(OC(=O)c2ccccc2)C(OC(=O)c2ccccc2)C1OC(=O)c1ccccc1)c1ccccc1.[Cl][Ru+] (mixture of isomers) [Ru-1],–,neither of them showed considerable activity,–,2.79,neither of them showed considerable activity,–,–,–,–,–,–,–,–
Cc1ccc(C(C)C)cc1.F[P-](F)(F)(F)(F)F.OCC1OC(c2noc(-c3ccccn3)n2)C(O)C(O)C1O.[Cl][Ru+] (mixture of isomers) [Ru-2],–,neither of them showed considerable activity,–,−0.96,neither of them showed considerable activity,–,–,–,–,–,–,–,–
Cc1ccc(C(C)C)cc1.F[P-](F)(F)(F)(F)F.O=C(OCC1OC(c2nnc(-c3ccccn3)o2)C(OC(=O)c2ccccc2)C(OC(=O)c2ccccc2)C1OC(=O)c1ccccc1)c1ccccc1.[Cl][Ru+] (mixture of isomers) [Ru-3],–,–,–,–,–,100%,6.2 µM and 6.19 µM,5.66 µM,100%,100%,3.27 µM,2.41,–
Cc1ccc(C(C)C)cc1.F[P-](F)(F)(F)(F)F.O=C(OCC1OC(c2nnc(-c3ccccn3)o2)C(OC(=O)c2ccccc2)C(OC(=O)c2ccccc2)C1OC(=O)c1ccccc1)c1ccccc1.[Cl][Ru+] (mixture of isomers) [Ru-4],–,–,–,–,–,100%,4.3 µM and 4.27 µM,7.94 µM,100%,100%,3.82 µM,2.44,–
Cc1ccc(C(C)C)cc1.F[P-](F)(F)(F)(F)F.O=C(OCC1OC(n2cc(-c3ccccn3)nn2)C(OC(=O)c2ccccc2)C(OC(=O)c2ccccc2)C1OC(=O)c1ccccc1)c1ccccc1.[Cl][Ru+] (mixture of isomers) [Ru-6],–,–,–,–,–,100%,0.87 µM,2.15 µM,100%,100%,2.18 µM,2.85,–
"O=C(OC[C@H]1O[C@@H](c2noc(-c3ccccn3)n2)[C@H](OC(=O)c2ccccc2)[C@@H](OC(=O)c2ccccc2)[C@@H]1OC(=O)c1ccccc1)c1ccccc1 [Complex L-1, 3-(2′,3′,4′,6′-Tetra-O-benzoyl-β-D-glucopyranosyl)-5-(pyridin-2-yl)-1,2,4-oxadiazole]",–,practically inactive,–,–,practically inactive,–,–,–,–,–,–,–,–
"OC[C@H]1O[C@@H](c2noc(-c3ccccn3)n2)[C@H](O)[C@@H](O)[C@@H]1O [Complex L-2, 3-(β-D-Glucopyranosyl)-5-(pyridin-2-yl)-1,2,4-oxadiazole]",–,practically inactive,–,–,practically inactive,–,–,–,–,–,–,–,–
